Data from PMC11568265, “Exploring peptide dendrimers for intestinal lymphatic targeting: formulation and evaluation of peptide dendrimer conjugated liposomes for enhancing the oral bioavailability of Asenapine maleate” (Scientific Reports, 2024).
Where a name gives a salt, the structure may show the parent alone. Marks after values point to notes of the source that are not given here.

Assays:
[1] = test system: L-DOPA-carbidopa-induced hyper locomotor activity; assay: Psychostimulant-induced hyperactivity model, locomotor activity (LMA) test; format: in vivo, Sprague–Dawley (SD) rats; settings: L-DOPA-carbidopa-treated rats, ASPM dose 5 mg/kg p.o.
Description: (§1) Preclinical ex vivo and in vivo studies were conducted on male Sprague–Dawley (SD) rats (200–250 g). The SD rats were bred at the Central Animal Research Facility, Manipal Academy of Higher Education, Manipal, India. The SD rats were exposed to a light–dark cycle (12 h each) and had free access to food and water. The rats used in the study were housed in cages at 25 ± 2 °C. All the experimental procedures and animal handling were carried out following the CCSEA (Committee for Control and Supervision of Experiments on Animals, Ministry of Fisheries, Animal Husbandry and Dairying, Government of India) guidelines, and in accordance with ARRIVE guidelines as well. All the animal experimental protocols were approved by the Institutional Animal Ethical Committee, Kasturba Medical College, MAHE, Manipal (Approval No: IAEC/KMC/49/2020). An attempt was made to use the minimum number of rats in an ethically responsible manner.
The pharmacodynamic study was performed using an induced locomotor activity (LMA) test with a psychostimulant-induced hyperactivity model. The ability of the optimized formulation to reverse hyperactivity in rats was studied. […] A digital Actophotometer (Ikon Instruments, New Delhi, India) was used to assess LMA at 5 min intervals at 1, 2 and 3 h. The LMA was assessed after 1 h of L-DOPA-carbidopa administration in group II. ASPM was administered after 30 min of L-DOPA-carbidopa administration, and LMA was noted after 30 min of ASPM administration in groups III, IV and V.

[2] = Oral pharmacokinetic study in rats; format: in vivo, Sprague–Dawley (SD) rats; settings: SD rats, 5 mg/kg ASPM orally, n = 6
Description: as §1
Overnight-fasted SD rats were divided into 3 groups (n = 6). Group I, ASPM solution; Group II, LP-ASPM; Group III, LP-PD-2. All the groups received ASPM at a dose of 5 mg/kg body weight orally. Blood was drawn from the retro-orbital sinus at different time points between 0 and 48 h in tubes containing disodium EDTA. Blood was centrifuged at 5000 rpm for 10 min, and the clear plasma from the supernatant layer was collected and stored at -80 °C until analysis. The amount of ASPM in the samples was analysed by RP-HPLC. The detailed bioanalytical method development for the quantification of ASPM in rat plasma is given in Supplementary information; Section S3; Table S4; Figure S7. Pharmacokinetic parameters were calculated using PK Solutions 2.0™ (Summit Research Services, Montrose, Colorado).

[3] = Ex vivo drug permeation, everted ileum sac model; format: in vitro ADME, Sprague–Dawley (SD) rats; settings: male, Sprague-Dawley, pH 7.4, everted rat ileum sac
Description: as §1
The absorption of the drug through the ileum portion of the small intestine was determined by an ex vivo drug permeation study using an everted ileum sac model. Overnight-fasted SD rats were sacrificed humanely, and the small intestine was isolated (≈ 10 cm). The isolated ileum segment was carefully everted and pushed completely over a capillary tube. The ileum was then tied between the cannulated parts of the U-shaped glass tube, which was used as a perfusion apparatus. The perfusion apparatus was then placed in a beaker containing 450 mL of Ringer’s solution (pH 7.4). The medium was stirred using magnetic beads at 100 rpm and 37 °C. Plain ASPM solution/liposomal dispersion was added to the beaker. The samples were withdrawn from the cannulated arm of the U tube at predetermined time points of 1, 2 and 3 h, and the same volume of the withdrawn sample was replaced by the addition of fresh Ringer’s solution. The amount of drug absorbed was calculated by analysing the samples using HPLC[22].

[4] = set-up: method as in PMID 30669881; settings: pure ASPM dispersion, intestinal fluid (phosphate buffer pH 6.8), within 180 min; cited from earlier work
Raji B cells = test system: Raji B cells; set-up: method as in PMID 30874464, PMID 32228915, doi:10.1016/j.jddst.2022.103275; settings: highest concentration of ASPM tested; cited from earlier work
[5] = cited from earlier work
Caco-2 cells = test system: Caco-2 cells; set-up: method as in PMID 30874464, PMID 32228915, doi:10.1016/j.jddst.2022.103275; settings: highest concentration of ASPM tested; cited from earlier work
[6] = male, Sprague-Dawley, rat, plasma, po

t1/2 ([2]; 5 mg/kg): 25.52 ± 2.15 h
half-life ([2]; male, Sprague-Dawley, rat, plasma, po, 5 mg/kg): 1510 ± 129 min
AUC(0-inf) [2, 6]: 3640 ± 347 ng·h/mL
AUC(0-t) [2, 6]: 2660 ± 221 ng·h/mL
Cmax [2, 6]: 131 ± 7.01 ng/mL
MRT [2, 6]: 36 ± 3.16 h
Tmax [2, 6]: 1 h
k el [2, 6]: 7.53e-06 s⁻¹
Papp at 1 h ([3]; 1 h): 291 ± 26 ×10⁻⁶ cm/s
Papp at 2 h ([3]; 2 h): 231 ± 31 ×10⁻⁶ cm/s
Papp at 3 h ([3]; 3 h): 206 ± 30 ×10⁻⁶ cm/s
SMILES: CN1CC2c3ccccc3Oc3ccc(Cl)cc3C2C1 (stereo not shown) [ASPM, Asenapine maleate]
Locomotor counts ([1]; 1 h): 121 ± 17*^$
Locomotor counts ([1]; 2 h): 118 ± 18*^$
Locomotor counts ([1]; 3 h): 110 ± 15*^$
drug release [4]: more than 90%
cells remaining viable (Raji B cells): more than 80%
bioavailability ([5]; marketed fast-dissolving sublingual tablet, ref 7 (printed at next sentence)): 35%
oral bioavailability ([5]; oral administration): < 2%
cells remaining viable (Caco-2 cells): more than 80%
